These results are taken from ChEMBL document CHEMBL5725203, “Quinazolinone compounds and derivatives thereof” (2016).

Bounds are passed on as bounds.

Assay [1] concerns the target Poly [ADP-ribose] polymerase 1 (Homo sapiens, UniProt P09874). Briefly: (§1) Biochemical Assay: PARP1 biochemical assay was purchased as a kit from Trevigen (cat.#4676-096-K) and used per manufacturers recommendations.PARP2 biochemical assay was purchased as a kit from BPS (cat.#80552) and used per manufacturers recommendations.
The target in assay [2] is Poly [ADP-ribose] polymerase 2 (Homo sapiens, UniProt Q9UGN5). Described as §1.
Sequence of Poly [ADP-ribose] polymerase 2 (Q9UGN5 whole entry): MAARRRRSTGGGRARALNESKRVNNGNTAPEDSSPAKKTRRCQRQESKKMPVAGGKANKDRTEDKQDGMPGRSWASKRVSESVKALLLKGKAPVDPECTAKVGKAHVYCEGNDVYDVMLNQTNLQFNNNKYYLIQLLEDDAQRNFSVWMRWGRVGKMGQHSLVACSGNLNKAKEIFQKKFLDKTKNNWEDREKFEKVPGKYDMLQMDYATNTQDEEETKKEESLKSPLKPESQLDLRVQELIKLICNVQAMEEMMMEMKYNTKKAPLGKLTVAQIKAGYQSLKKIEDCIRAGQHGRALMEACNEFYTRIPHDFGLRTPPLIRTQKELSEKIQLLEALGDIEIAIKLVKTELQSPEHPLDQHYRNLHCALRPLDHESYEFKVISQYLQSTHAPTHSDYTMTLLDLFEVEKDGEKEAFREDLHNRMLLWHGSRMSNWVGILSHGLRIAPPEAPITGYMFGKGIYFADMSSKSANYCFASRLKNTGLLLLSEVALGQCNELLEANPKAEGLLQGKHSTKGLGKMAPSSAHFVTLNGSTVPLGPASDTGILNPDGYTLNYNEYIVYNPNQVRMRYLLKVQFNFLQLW

Sequence of Poly [ADP-ribose] polymerase 1 (P09874 whole entry): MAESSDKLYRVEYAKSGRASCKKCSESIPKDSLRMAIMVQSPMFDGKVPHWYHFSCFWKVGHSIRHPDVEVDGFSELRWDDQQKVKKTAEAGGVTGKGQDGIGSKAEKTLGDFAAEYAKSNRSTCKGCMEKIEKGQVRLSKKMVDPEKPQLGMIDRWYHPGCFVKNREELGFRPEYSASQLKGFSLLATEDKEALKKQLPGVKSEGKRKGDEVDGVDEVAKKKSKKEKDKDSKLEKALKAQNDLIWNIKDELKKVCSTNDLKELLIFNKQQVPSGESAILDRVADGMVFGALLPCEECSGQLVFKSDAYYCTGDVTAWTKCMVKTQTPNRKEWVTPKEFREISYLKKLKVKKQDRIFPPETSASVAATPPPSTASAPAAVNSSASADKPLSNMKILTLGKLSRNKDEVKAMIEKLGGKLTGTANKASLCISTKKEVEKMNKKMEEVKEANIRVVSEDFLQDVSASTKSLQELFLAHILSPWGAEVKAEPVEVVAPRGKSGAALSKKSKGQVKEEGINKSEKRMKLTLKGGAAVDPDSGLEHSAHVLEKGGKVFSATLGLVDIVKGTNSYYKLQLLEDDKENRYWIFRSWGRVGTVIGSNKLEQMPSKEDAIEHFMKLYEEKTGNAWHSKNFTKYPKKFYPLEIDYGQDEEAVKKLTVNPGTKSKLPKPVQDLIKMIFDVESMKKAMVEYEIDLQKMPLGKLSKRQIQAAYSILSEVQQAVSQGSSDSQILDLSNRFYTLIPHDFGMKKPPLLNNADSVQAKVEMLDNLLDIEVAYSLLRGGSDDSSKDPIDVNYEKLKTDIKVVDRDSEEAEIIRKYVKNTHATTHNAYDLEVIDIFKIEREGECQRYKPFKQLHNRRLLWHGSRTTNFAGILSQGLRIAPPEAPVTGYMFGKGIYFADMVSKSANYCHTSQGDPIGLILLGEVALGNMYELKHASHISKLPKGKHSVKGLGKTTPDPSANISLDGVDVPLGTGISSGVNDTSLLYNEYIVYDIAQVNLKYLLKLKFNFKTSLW

`O=C(CCCc1nc2ccccc2c(=O)[nH]1)N1CCC(c2noc3ccc(F)cc23)CC1`: the concentration for half-maximal inhibition (IC50) (in general, the concentration that gives 50% inhibition) in assay [1] stood at 5570 nM; in assay [2], 1440 nM.
In the same order, the values of `O=C1Nc2cc(Cl)ccc2C1C1CCN(C(=O)CCCc2nc3ccccc3c(=O)[nH]2)CC1` (racemic) are 7350 nM and 251 nM.
As for `O=C(CCCc1nc2ccccc2c(=O)[nH]1)N[C@H]1CC[C@H](Oc2ccccc2)C1`, the half-inhibitory concentration (IC50) turned out to be 1290 nM in assay [1] and 893 nM in assay [2].
Take `O=C(CCCc1nc2ccccc2c(=O)[nH]1)N1CCC(n2nnc3ccccc32)CC1`: the values for the half-maximal inhibitory concentration (IC50) in assay [1] and in assay [2] were 2260 nM and 1370 nM, respectively.
In the same order, the values of `COc1ccc2c(c1)[nH]c(=O)n2C1CCN(C(=O)CCCc2nc3ccccc3c(=O)[nH]2)CC1` are 1780 nM and 160 nM.
In the same order, the values of `O=C(CCc1nc2ccccc2c(=O)[nH]1)N[C@H]1CC[C@H](n2c(=O)oc3ccccc32)CC1` are 2260 nM and 3080 nM.
In the same order, the values of `O=C(CCCc1nc2ccccc2c(=O)[nH]1)N1CCN(c2noc3ccccc23)CC1` are 992 nM and 333 nM.
`O=C(CCc1cc(=O)n2ccccc2n1)N[C@H]1CC[C@H](c2nnc(-c3ccccc3)o2)CC1` had an IC50 in assay [1] of more than 85000 nM.
On to `O=C(CCSc1nc2ccccc2c(=O)[nH]1)N[C@H]1CC[C@H](c2nnc(-c3ccncc3)o2)CC1`, for which the IC50 came out at 10200 nM in assay [1] and 3020 nM in assay [2].
